The results in this text go back to paper PMC3770139 (Molecular cell, 2013).

The test concerns the target T1, Gpa1 (yeast Gα) (Saccharomyces cerevisiae, UniProt P08539).
T1 sequence (P08539 2-472): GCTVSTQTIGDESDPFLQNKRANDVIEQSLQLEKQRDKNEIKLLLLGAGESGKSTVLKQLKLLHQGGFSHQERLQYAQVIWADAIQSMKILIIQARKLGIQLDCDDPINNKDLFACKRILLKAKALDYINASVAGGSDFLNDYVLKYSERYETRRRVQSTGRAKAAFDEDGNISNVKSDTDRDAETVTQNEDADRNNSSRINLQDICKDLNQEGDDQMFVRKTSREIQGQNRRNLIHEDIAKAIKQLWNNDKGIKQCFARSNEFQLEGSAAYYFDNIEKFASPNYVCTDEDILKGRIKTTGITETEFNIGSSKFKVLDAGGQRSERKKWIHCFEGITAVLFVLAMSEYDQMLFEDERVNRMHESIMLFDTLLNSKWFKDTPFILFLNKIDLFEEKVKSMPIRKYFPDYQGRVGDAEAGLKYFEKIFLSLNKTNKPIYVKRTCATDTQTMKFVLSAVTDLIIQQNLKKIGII
Description: steady-state hydrolysis of gamma-32P GTP, charcoal assay. Format: biochemical. Particulars: turnover only; 5 µM GTP, 1 mM MgCl2, 37 °C, pH 6.0, 7.0, 8.0.

Take `Nc1nc2c(ncn2[C@@H]2O[C@H](COP(=O)(O)OP(=O)(O)OP(=O)(O)O)[C@@H](O)[C@H]2O)c(=O)[nH]1` [GTP]: the “steady-state hydrolysis of gamma-32P GTP, charcoal assay” value is “Steady-state GTP hydrolysis by yeast Gpa1 and mammalian Gαi”.
